Data set [1] can be described thus: Stability in liver microsome of dogs. It counts as in vitro ADME. The settings on record: Dog liver microsome 0.5 mg protein/mL, compound 1 μM, 37° C.; for half-life at 1 μM / microsomal CLint at 1 μM: liver microsomes. On the procedure: Assay 1: Stability assessment of the compounds of the present invention in liver microsome of mice and dogs
Test substances: the compounds of the present invention, wherein the structures and preparations thereof were as described above.
The composition of the incubation system:
Preparation of Test Substances:
An appropriate amount of the compound was accurately weighed and dissolved in DMSO to prepare a 5.0 mM stock solution. The 5.0 mM stock solution was diluted to 1.0 mM with DMSO, and finally diluted with water to a 10 μM test substance working solution for use (the DMSO content in the reaction system was 0.1%).
(1) The liver microsome (20 mg protein/mL) was taken out from the −80° C. refrigerator, pre-incubated at 37° C. with a water-bathing constant temperature vibrator for 3 minutes, and melted for use.
(2) A mixed solution of the incubation system (excluding compounds and β-NADPH) according to the above “composition of the incubation system” for the assay was prepared, and pre-incubated at 37° C. with a water-bathing constant temperature vibrator for 2 minutes.
(3) Control group (excluding β-NADPH): 30 μL of water and 30 μL of compound working solution (10 μM) were added to 240 μL of the mixed solution of the incubation system of step (2), and vortexed for 30 seconds to mix well. The total reaction volume was 300 μL. A duplicate sample was prepared. The sample was incubated at 37° C. with a water-bathing constant temperature vibrator. The timekeeping began and the sampling time points were set at 0 minute and 60 minutes.
(4) Sample group: 70 μL of β-NADPH solution (10 mM) and 70 μL of compound working solution (10 μM) were added to 560 μL of the mixed solution of step (2). The total reaction volume was 700 μL. The resulting mixture was vortexed for 30 seconds to mix well. A duplicate sample was prepared. The sample was incubated at 37° C. with a water-bathing constant temperature vibrator. The timekeeping began and the sampling time points were set at 0 minute, 5 minutes, 10 minutes, 20 minutes, 30 minutes, and 60 minutes after timekeeping.
(5) After vortexing for 3 minutes, the sample was centrifuged at 4000 rpm for 10 minutes.
(6) 50 μL of the supernatant was taken and 150 μL of water was added. The resulting mixture was vortexed to mix well, and analyzed by LC/MS/MS.
The half-life (t1/2) and clearance rate (Cl) were calculated using the following first-order kinetic formula:
Vd=1/protein content in liver microsome
Note: k was the slope of the logarithm of the remaining amount of the compound versus time, and Vd was the apparent distribution volume.
(In general: Microsomes from liver hold many membrane-bound enzymes, among them those of drug oxidation.)

The next data set concerns the target T1, H1299 cell pMer (Homo sapiens, UniProt Q12866).
T1 construct: The H1299 cells were inoculated in a 6-well plate; endogenous in cells; host or cells: H1299
T1 sequence (Q12866 21-999): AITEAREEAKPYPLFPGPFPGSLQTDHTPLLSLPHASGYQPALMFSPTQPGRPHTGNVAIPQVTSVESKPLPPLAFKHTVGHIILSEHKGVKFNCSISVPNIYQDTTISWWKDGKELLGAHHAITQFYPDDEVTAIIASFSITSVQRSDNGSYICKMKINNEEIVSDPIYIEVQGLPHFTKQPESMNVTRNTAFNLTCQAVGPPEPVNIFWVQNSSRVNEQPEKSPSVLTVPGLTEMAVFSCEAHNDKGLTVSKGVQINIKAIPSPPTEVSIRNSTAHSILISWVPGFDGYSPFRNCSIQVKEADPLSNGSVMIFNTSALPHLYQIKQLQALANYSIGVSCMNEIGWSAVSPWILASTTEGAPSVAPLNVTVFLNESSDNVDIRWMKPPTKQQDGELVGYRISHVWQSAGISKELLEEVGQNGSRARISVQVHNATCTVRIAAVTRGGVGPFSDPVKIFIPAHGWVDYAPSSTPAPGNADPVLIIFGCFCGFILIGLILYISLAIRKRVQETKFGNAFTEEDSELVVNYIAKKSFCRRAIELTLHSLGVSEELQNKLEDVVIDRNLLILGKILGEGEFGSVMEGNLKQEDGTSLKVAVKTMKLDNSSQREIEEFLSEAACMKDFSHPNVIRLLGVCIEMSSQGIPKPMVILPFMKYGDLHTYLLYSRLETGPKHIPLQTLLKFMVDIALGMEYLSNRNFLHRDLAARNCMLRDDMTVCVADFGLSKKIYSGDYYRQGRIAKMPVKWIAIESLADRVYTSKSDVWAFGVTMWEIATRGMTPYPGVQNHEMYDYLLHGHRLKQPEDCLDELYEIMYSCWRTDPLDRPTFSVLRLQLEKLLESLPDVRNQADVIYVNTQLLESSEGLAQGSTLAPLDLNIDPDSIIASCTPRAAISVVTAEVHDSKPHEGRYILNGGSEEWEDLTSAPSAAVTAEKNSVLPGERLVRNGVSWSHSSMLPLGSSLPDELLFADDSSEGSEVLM
Description: Inhibitory activity on the cell pMer (Western Blot). It counts as cell-based. The settings on record: H1299 cells, compound 0.35, 1.1, 3.3, 10 nM, Human MerMab 200 ng/mL. On the procedure: Assay 6: Test for Inhibitory Activities of the Compounds of the Present Invention on the Cell pMer
H1299 is a non-small cell lung cancer cell.
Test substances: the compounds of the present invention, wherein the structures thereof were as described above.
Test equipment: protein electrophoresis apparatus (manufactured by Bio Rad), transfer unit (manufactured by Bio Rad), exposure unit (manufactured by Tanon), CO2 cell incubator (manufactured by Thermo).
The H1299 cells were inoculated in a 6-well plate (containing 10% FBS 1640 medium, 5×10^5 cells per well), and adherent cells were cultivated at 37° C. in a 5% CO2 condition for 18 hours. The cells were starved overnight. Different concentrations of compounds were added. The final compound concentrations were 0.35, 1.1, 3.3 and 10 nM, and the final DMSO content was 1‰. The negative control wells contained the medium containing 1‰ DMSO. After incubating at 37° C. in a 5% CO2 condition for 60 minutes, Human MerMab (R&D, final concentration 200 ng/mL) was added to each well. After further incubating for 60 minutes, the cell total protein was extracted for Western Blot and the IC50 values were calculated using GraphPad 5.0 software. The inhibitory activity of the compound on the cell pMer was examined.

Bounds are passed on as bounds.

A word on the half-life: it is the time in which the quantity being followed falls by half. High values mean slow decline, low ones rapid decline. A word on the microsomal CLint: it is the rate of metabolic loss divided by the concentration. Higher therefore signals rapid turnover. Broadly, the IC50 is the concentration needed to halve the response being measured. Low values mean inhibition by little substance, high ones a need for much substance. As for `COc1cc2nccc(Oc3cnc(NC(=O)c4cn(C(C)C)cc(-c5ccc(F)cc5)c4=O)nc3)c2cc1OC` [Compound 20, N-(5-((6,7-dimethoxyquinolin-4-y)oxy)pyrimidine-2-yl)-5-(4-fluorophenyl)-1-isopropyl-4-oxo-1,4-dihydropyridin-3-carboxamide], in data set [1], the half-life at 1 μM was determined as 6.08 h and the intrinsic metabolic clearance (microsomal CLint) at 1 μM was determined as 3.8 µL/min/mg. In addition, inhibition on H1299 cell pMer was half-maximal at 1.1 nM (IC50).

For the compound `COc1cc2nccc(Oc3cnc(NC(=O)c4nn(C5CC5)cc(-c5ccc(F)cc5)c4=O)nc3)c2cc1OC` [Compound 33], the t1/2 result in data set [1] is on record as “→∞”. The compound further had an IC50 on H1299 cell pMer of less than 1.1 nM.

As to `COc1cc2nccc(Oc3cnc(NC(=O)c4cn(C5CC5)nc(-c5ccc(F)cc5)c4=O)nc3)c2cc1OC` [Compound 45, 2-cyclopropyl-N-(5-((6,7-dimethoxyquinolin-4-yl)oxy)pyrimidine-2-yl)-6-(4-fluorophenyl)-5-oxo-2,5-dihydropyridazine-4-carboxamide], in data set [1], the half-life at 1 μM came to 9.63 h and the intrinsic metabolic clearance (microsomal CLint) at 1 μM came to 2.4 µL/min/mg. Also, the concentration for half-maximal inhibition (IC50) against H1299 cell pMer was less than 1.1 nM.

Take `COc1cc2nccc(Oc3ccc(NC(=O)c4cn(C(C)C)nc(-c5ccc(F)cc5)c4=O)nc3)c2cc1OC` [Compound 41, N-(5-((6,7-dimethoxyquinolin-4-yl)oxy)pyridin-2-yl)-6-(4-fluorophenyl)-2-isopropyl-5-oxo-2,5-dihydropyridazine-4-carboxamide]: the IC50 on H1299 cell pMer is less than 3.3 nM.

In data set [1], `COc1cc2nccc(Oc3cnc(NC(=O)c4nn(C(C)C)cc(-c5ccc(F)cc5)c4=O)nc3)c2cc1OC` [Compound 16, N-(5-((6,7-dimethoxyquinolin-4-yl)oxy)pyrimidine-2-yl)-5-(4-fluorophenyl)-1-isopropyl-4-oxo-1,4-dihydropyridazine-3-carboxamide] displayed a half-life at 1 μM of 8.25 h and an intrinsic clearance (microsomal CLint) at 1 μM of 2.8 µL/min/mg. The IC50 on H1299 cell pMer was less than 1.1 nM.

On to `COc1cc2nccc(Oc3cnc(NC(=O)c4cn(C5CC5)cc(-c5ccc(F)cc5)c4=O)nc3)c2cc1OC` [Compound 32, 1-cyclopropyl-N-(5-((6,7-dimethoxyquinolin-4-yl)oxy)pyrimidine-2-yl)-5-(4-fluorophenyl)-4-oxo-1,4-dihydropyridin-3-carboxamide], for which, in data set [1], the half-life at 1 μM amounted to 3.5 h and the microsomal CLint at 1 μM amounted to 6.6 µL/min/mg. The compound also had a 50% inhibitory concentration (IC50) against H1299 cell pMer of less than 1.1 nM.

As to `COc1cc2nccc(Oc3ccc(NC(=O)c4nn(C(C)C)cc(-c5ccc(F)cc5)c4=O)cn3)c2cc1OC` [Compound 29, N-(6-((6,7-dimethoxyquinolin-4-yl)oxy)pyridin-3-yl)-1-isopropyl-4-oxo-5-para-fluorophenyl-1,4-dihydropyridazine-3-carboxamide], in data set [1], the half-life at 1 μM is 2.18 h and the intrinsic clearance (microsomal CLint) at 1 μM was determined as 10.6 µL/min/mg. The compound further showed an IC50 on H1299 cell pMer of less than 1.1 nM.

`COc1cc2nccc(Oc3ncc(NC(=O)c4nn(C(C)C)cc(-c5ccc(F)cc5)c4=O)cn3)c2cc1OC` [Compound 34, N-(2-((6,7-dimethoxyquinolin-4-yl)oxy)pyrimidine-5-yl)-5-para-fluorophenyl-1-isopropyl-4-oxo-1,4-dihydropyridazine-3-carboxamide]: in data set [1], the half-life at 1 μM was determined as 8.25 h and the microsomal CLint at 1 μM was 2.8 µL/min/mg. The compound further registered a half-maximal inhibitory concentration (IC50) on H1299 cell pMer of less than 1.1 nM.

Take `COc1cc2nccc(Oc3ncc(NC(=O)c4nn(C5CC5)cc(-c5ccc(F)cc5)c4=O)cn3)c2cc1OC` [Compound 37, 1-cyclopropyl-N-(2-((6,7-dimethoxyquinolin-4-yl)oxy)pyrimidine-5-yl)-5-para-fluorophenyl-4-oxo-1,4-dihydropyridazine-3-carboxamide]: in data set [1], the half-life at 1 μM is 2.82 h and the microsomal CLint at 1 μM is 8.2 µL/min/mg. This compound also had an IC50 on H1299 cell pMer of 1.1 to 3.3 nM.

`COc1cc2nccc(Oc3ccc(NC(=O)c4cn(C5CC5)nc(-c5ccc(F)cc5)c4=O)cn3)c2cc1OC` [Compound 43, 2-cyclopropyl-N-(6-((6,7-dimethoxyquinolin-4-yl)oxy)pyridin-3-yl)-6-para-fluorophenyl-5-oxo-2,5-dihydropyridazine-4-carboxamide]: in data set [1], the half-life at 1 μM is 2.4 h and the intrinsic clearance (microsomal CLint) at 1 μM amounted to 9.6 µL/min/mg. At H1299 cell pMer, this compound had a half-inhibitory concentration (IC50) of less than 1.1 nM.

Regarding `COc1cc2nccc(Oc3ccc(NC(=O)c4nn(C(C)C)cc(-c5ccc(F)cc5)c4=O)nc3)c2cc1OC` [Compound 15, N-(5-((6,7-dimethoxyquinolin-4-yl)oxy)pyridin-2-yl)-5-(4-fluorophenyl)-1-isopropyl-4-oxo-1,4-dihydropyridazine-3-carboxamide], in data set [1], the half-life at 1 μM came to 3.73 h and the microsomal CLint at 1 μM is 6.2 µL/min/mg. This compound came in with an IC50 at H1299 cell pMer of less than 0.35 nM.

In data set [1], `COc1cc2nccc(Oc3ccc(NC(=O)c4cn(C5CC5)cc(-c5ccc(F)cc5)c4=O)nc3)c2cc1OC` [Compound 30, N-(5-((6,7-dimethoxyquinolin-4-yl)oxy)pyridin-2-yl)-1-cyclopropyl-4-oxo-5-para-fluorophenyl-1,4-hydropyridin-3-carboxamide] yielded a half-life at 1 μM of 0.938 h and a microsomal CLint at 1 μM of 24.6 µL/min/mg. For the same compound, the IC50 on H1299 cell pMer lay in the range of 1.1 to 3.3 nM.

In data set [1], `COc1cc2nccc(Oc3ccc(NC(=O)c4nn(C5CC5)cc(-c5ccc(C)cc5)c4=O)nc3)c2cc1OC` [Compound 46, 1-cyclopropyl-N-(5-((6,7-dimethoxyquinolin-4-yl)oxy)pyridin-2-yl)-4-oxo-5-p-tolyl-1,4-dihydropyridazine-3-carboxamide] came in with a half-life at 1 μM of 0.208 h and an intrinsic metabolic clearance (microsomal CLint) at 1 μM of 111 µL/min/mg. On H1299 cell pMer, this compound had an IC50 of less than 0.37 nM.

For the compound `COc1cc2nccc(Oc3ccc(NC(=O)c4nn(C5CC5)cc(-c5ccc(F)cc5)c4=O)nc3)c2cc1OC` [Compound 31], the t1/2 entry in data set [1] is given as “→∞”. The compound also gave an IC50 against H1299 cell pMer of less than 0.35 nM.

In the case of `COc1cc2nccc(Oc3ncc(NC(=O)c4cn(C(C)C)nc(-c5ccc(F)cc5)c4=O)cn3)c2cc1OC` [Compound 40, N-(2-((6,7-dimethoxyquinolin-4-yl)oxy)pyrimidine-5-yl)-6-(4-fluorophenyl)-2-isopropyl-5-oxo-2,5-dihydropyridazine-4-carboxamide], the t1/2 entry in data set [1] is “→∞”.
